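A five-concentration, 48-hour dose response in 96-well plates underlies each endpoint, interpolated linearly between surrounding concentrations. GI50 is the concentration that inhibits growth by half.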 The source made the active and inactive calls. No stated cut-off is given here; in the data, active = GI50 up to about 1.1 µM and inactive = higher.
Tests used:
Experiment in all cases: DTP human tumour cell line panel, 48 h
OVCAR-5 = system: OVCAR-5
SNB-75 = system: SNB-75
BT-549 = system: BT-549
HCT-116 = system: HCT-116
M14 = system: M14
SNB-19 = system: SNB-19
UO-31 = system: UO-31
CAKI-1 = system: CAKI-1
SF-539 = system: SF-539

Measured: GI50

COc1cccc2c1[C@H](OC)[C@]13O[C@@]1(C2=O)[C@H](O)[C@H](C)[C@@](O)(C(=O)[C@@H]1O[C@H]1C)[C@@H]3O
active: OVCAR-5 297 nM | SNB-75 233 nM | BT-549 289 nM | HCT-116 318 nM | M14 221 nM | SNB-19 286 nM | UO-31 249 nM | CAKI-1 273 nM | SF-539 271 nM
